Reference: article PMC5218480 (PLoS ONE, 2017)

System: MV-4-11 cells
Experiment: Gene expression microarray analysis (Affymetrix PrimeView) and GSEA
Assay type: cell-based, human
Parameters: RFU PODN (11730768_x_at) / Fold change /veh PODN (11730768_x_at) / RFU LINC00158 (11744669_a_at) / Fold change /veh LINC00158 (11744669_a_at) / RFU DUSP10 (11751237_a_at) / Fold change /veh DUSP10 (11751237_a_at) / RFU ID3 (11757404_x_at) / Fold change /veh ID3 (11757404_x_at) / RFU PLEKHG5 (11737974_s_at) / Fold change /veh PLEKHG5 (11737974_s_at) / RFU LRRC4B (11730491_at) / Fold change /veh LRRC4B (11730491_at) / RFU GIMAP4 (11747438_a_at) / Fold change /veh GIMAP4 (11747438_a_at) / RFU KRT8 (11758183_x_at) / Fold change /veh KRT8 (11758183_x_at) / RFU CNN1 (11734310_a_at) / Fold change /veh CNN1 (11734310_a_at) / RFU VPS37D (11726825_at) / Fold change /veh VPS37D (11726825_at) / RFU C10orf10 (11716522_x_at) / Fold change /veh C10orf10 (11716522_x_at) / RFU KIR2DL2 /// KIR2DL4 /// KIR2DL5A /// KIR2DL5B /// KIR2DS1 /// KIR2DS2 /// KIR2DS3 /// KIR2DS4 /// KIR3DL3 /// KIR3DL3 /// KIR3DS1 (11738374_at) / Fold change /veh KIR2DL2 /// KIR2DL4 /// KIR2DL5A /// KIR2DL5B /// KIR2DS1 /// KIR2DS2 /// KIR2DS3 /// KIR2DS4 /// KIR3DL3 /// KIR3DL3 /// KIR3DS1 (11738374_at) / RFU C1QL1 (11718748_at) / Fold change /veh C1QL1 (11718748_at) / RFU TMPRSS4 (11747572_a_at) / Fold change /veh TMPRSS4 (11747572_a_at) / RFU HAMP (11756126_x_at) / Fold change /veh HAMP (11756126_x_at) / RFU RNFT2 (11725882_a_at) / Fold change /veh RNFT2 (11725882_a_at) / RFU NR4A2 (11747474_a_at) / Fold change /veh NR4A2 (11747474_a_at) / RFU ABCC12 (11746883_a_at) / Fold change /veh ABCC12 (11746883_a_at) / RFU TMEM136 (11760407_x_at) / Fold change /veh TMEM136 (11760407_x_at) / RFU CLDN22 /// WWC2 (11732394_at) / Fold change /veh CLDN22 /// WWC2 (11732394_at) / RFU HLA-DPB1 (11760878_x_at) / Fold change /veh HLA-DPB1 (11760878_x_at) / RFU SPINT1 (11716480_a_at) / Fold change /veh SPINT1 (11716480_a_at) / RFU GAP43 (11754022_s_at) / Fold change /veh GAP43 (11754022_s_at) / RFU A4GNT (11735810_at) / Fold change /veh A4GNT (11735810_at) / RFU PRB3 (11715151_x_at) / Fold change /veh PRB3 (11715151_x_at) / RFU TUBB4B (11761932_at) / Fold change /veh TUBB4B (11761932_at) / RFU CAPN14 (11732068_a_at) / Fold change /veh CAPN14 (11732068_a_at) / RFU TMCC2 (11721928_a_at) / Fold change /veh TMCC2 (11721928_a_at) / RFU IRGQ (11745062_a_at) / Fold change /veh IRGQ (11745062_a_at) / RFU FAM174B (11720279_a_at) / Fold change /veh FAM174B (11720279_a_at) / RFU TMPRSS4 (11748680_a_at) / Fold change /veh TMPRSS4 (11748680_a_at) / RFU FAM212B (11763350_a_at) / Fold change /veh FAM212B (11763350_a_at) / RFU PLEKHG5 (11743358_a_at) / Fold change /veh PLEKHG5 (11743358_a_at) / RFU ZSCAN30 (11745921_a_at) / Fold change /veh ZSCAN30 (11745921_a_at) / RFU CMKLR1 (11741424_a_at) / Fold change /veh CMKLR1 (11741424_a_at) / RFU LOC101060620 /// MAPK8IP1 (11723275_at) / Fold change /veh LOC101060620 /// MAPK8IP1 (11723275_at) / RFU SPTSSB (11747773_x_at) / Fold change /veh SPTSSB (11747773_x_at) / RFU PRSS12 (11739890_at) / Fold change /veh PRSS12 (11739890_at) / RFU BIN1 (11741810_x_at) / Fold change /veh BIN1 (11741810_x_at) / RFU WNT11 (11732464_a_at) / Fold change /veh WNT11 (11732464_a_at) / RFU C10orf10 (11716521_a_at) / Fold change /veh C10orf10 (11716521_a_at) / RFU C5orf56 (11738089_at) / Fold change /veh C5orf56 (11738089_at) / RFU CYB561 (11721691_x_at) / Fold change /veh CYB561 (11721691_x_at) / RFU ANKRD19P (11752326_a_at) / Fold change /veh ANKRD19P (11752326_a_at) / RFU OR2T12 /// OR2T33 /// OR2T8 (11738714_s_at) / Fold change /veh OR2T12 /// OR2T33 /// OR2T8 (11738714_s_at) / RFU VCAN (11748164_a_at) / Fold change /veh VCAN (11748164_a_at) / RFU JSRP1 (11732532_at) / Fold change /veh JSRP1 (11732532_at) / RFU KRTAP10-11 (11738290_x_at) / Fold change /veh KRTAP10-11 (11738290_x_at) / RFU MYO3A (11730013_a_at) / Fold change /veh MYO3A (11730013_a_at) / RFU EBF3 (11725865_a_at) / Fold change /veh EBF3 (11725865_a_at) / RFU CAMK2N1 (11719241_x_at) / Fold change /veh CAMK2N1 (11719241_x_at) / RFU C5orf56 (11738088_a_at) / Fold change /veh C5orf56 (11738088_a_at) / RFU OLFML3 (11715873_a_at) / Fold change /veh OLFML3 (11715873_a_at) / RFU LOC100653217 /// NTM (11731650_a_at) / Fold change /veh LOC100653217 /// NTM (11731650_a_at) / RFU MAPK11 (11762145_a_at) / Fold change /veh MAPK11 (11762145_a_at) / RFU FIZ1 (11724087_x_at) / Fold change /veh FIZ1 (11724087_x_at) / RFU OASL (11726364_x_at) / Fold change /veh OASL (11726364_x_at) / RFU SOX15 (11748057_x_at) / Fold change /veh SOX15 (11748057_x_at) / RFU CD79A (11719716_a_at) / Fold change /veh CD79A (11719716_a_at) / RFU HIST1H1D (11736915_at) / Fold change /veh HIST1H1D (11736915_at) / RFU CASKIN2 (11723855_a_at) / Fold change /veh CASKIN2 (11723855_a_at) / RFU LOC730098 (11760151_x_at) / Fold change /veh LOC730098 (11760151_x_at) / RFU OR4N2 (11742367_at) / Fold change /veh OR4N2 (11742367_at) / RFU PRRT2 (11749266_a_at) / Fold change /veh PRRT2 (11749266_a_at) / RFU SNX32 (11753110_a_at) / Fold change /veh SNX32 (11753110_a_at) / RFU CDHR5 (11726645_a_at) / Fold change /veh CDHR5 (11726645_a_at) / RFU RCAN1 (11760418_a_at) / Fold change /veh RCAN1 (11760418_a_at) / RFU FAM167A (11723789_a_at) / Fold change /veh FAM167A (11723789_a_at) / RFU FAM26E (11764081_at) / Fold change /veh FAM26E (11764081_at) / RFU ISYNA1 (11749810_s_at) / Fold change /veh ISYNA1 (11749810_s_at) / RFU ACY1 (11761880_at) / Fold change /veh ACY1 (11761880_at) / RFU 11764098_at / Fold change /veh 11764098_at / RFU SAMD14 (11745864_x_at) / Fold change /veh SAMD14 (11745864_x_at) / RFU NPB (11741838_a_at) / Fold change /veh NPB (11741838_a_at) / RFU TMPRSS6 (11731388_a_at) / Fold change /veh TMPRSS6 (11731388_a_at) / RFU KRTAP10-2 (11738614_at) / Fold change /veh KRTAP10-2 (11738614_at) / RFU ARHGAP8 /// PRR5-ARHGAP8 (11727945_x_at) / Fold change /veh ARHGAP8 /// PRR5-ARHGAP8 (11727945_x_at) / RFU KRTAP5-7 /// NADSYN1 (11734609_at) / Fold change /veh KRTAP5-7 /// NADSYN1 (11734609_at) / RFU RASL12 (11751679_a_at) / Fold change /veh RASL12 (11751679_a_at) / RFU CDKN2B (11736163_a_at) / Fold change /veh CDKN2B (11736163_a_at) / RFU PRF1 (11729649_at) / Fold change /veh PRF1 (11729649_at) / RFU, ZNF638 /// ZNF638-IT1 / Fold change vs veh, ZNF638 /// ZNF638-IT1 / RFU, PANK3 / Fold change vs veh, PANK3 / RFU, SH3YL1 / Fold change vs veh, SH3YL1 / RFU, ZEB2 / Fold change vs veh, ZEB2 / RFU, NRIP1 / Fold change vs veh, NRIP1 / RFU, PTTG1IP / Fold change vs veh, PTTG1IP / RFU, CAPN2 / Fold change vs veh, CAPN2 / RFU, MED14 / Fold change vs veh, MED14 / RFU, SNORA58 / Fold change vs veh, SNORA58 / RFU, C1orf63 / Fold change vs veh, C1orf63 / RFU, LRRFIP1 / Fold change vs veh, LRRFIP1 / RFU, NDUFAF7 / Fold change vs veh, NDUFAF7 / RFU, SLC12A2 / Fold change vs veh, SLC12A2 / RFU, IBTK / Fold change vs veh, IBTK / RFU, ESF1 / Fold change vs veh, ESF1 / Fold change vs veh, TMEM50B / RFU, TAOK1 / Fold change vs veh, TAOK1 / RFU, ACBD3 / Fold change vs veh, ACBD3 / RFU, TMA16 / Fold change vs veh, TMA16 / RFU, RWDD3 / Fold change vs veh, RWDD3 / RFU, BCAT1 / Fold change vs veh, BCAT1 / RFU, EDEM3 / Fold change vs veh, EDEM3 / RFU, TMEM33 / Fold change vs veh, TMEM33 / RFU, WDR75 / Fold change vs veh, WDR75 / RFU, AHCTF1 / Fold change vs veh, AHCTF1 / RFU, TFRC / Fold change vs veh, TFRC / RFU, ZDHHC17 / Fold change vs veh, ZDHHC17 / RFU, NOM1 / Fold change vs veh, NOM1 / RFU, ARL8B / Fold change vs veh, ARL8B / RFU, ZBTB11 / Fold change vs veh, ZBTB11 / RFU, TAMM41 / Fold change vs veh, TAMM41 / RFU, KIAA1704 /// LOC100996395 / Fold change vs veh, KIAA1704 /// LOC100996395 / RFU, ING1 / Fold change vs veh, ING1 / RFU, TRMT61B / Fold change vs veh, TRMT61B / RFU, FUBP3 / Fold change vs veh, FUBP3 / RFU, TP53 / Fold change vs veh, TP53 / RFU, TNKS2 / Fold change vs veh, TNKS2 / RFU, ZFP14 / Fold change vs veh, ZFP14 / RFU, ACTR2 / Fold change vs veh, ACTR2 / RFU, PPP3R1 / Fold change vs veh, PPP3R1 / RFU, PIK3R1 / Fold change vs veh, PIK3R1 / RFU, HNRNPA1 / Fold change vs veh, HNRNPA1 / RFU, RNF170 / Fold change vs veh, RNF170 / RFU, ZNF28 / Fold change vs veh, ZNF28 / RFU, RNGTT / Fold change vs veh, RNGTT / RFU, OGT / Fold change vs veh, OGT / RFU, BRD1 / Fold change vs veh, BRD1 / RFU, MARS / Fold change vs veh, MARS / RFU, ZNF655 / Fold change vs veh, ZNF655 / RFU, FAHD1 / Fold change vs veh, FAHD1 / RFU, BDP1 / Fold change vs veh, BDP1 / RFU, LRRCC1 / Fold change vs veh, LRRCC1 / RFU, ARID1A / Fold change vs veh, ARID1A / RFU, ZNF146 / Fold change vs veh, ZNF146 / RFU, ZNF330 / Fold change vs veh, ZNF330 / RFU, GPN3 / Fold change vs veh, GPN3 / RFU, C9orf123 / Fold change vs veh, C9orf123 / RFU, N4BP2L2 / Fold change vs veh, N4BP2L2 / RFU, ARFIP1 / Fold change vs veh, ARFIP1 / RFU, FAM179B / Fold change vs veh, FAM179B / RFU, BCL10 / Fold change vs veh, BCL10 / RFU, UHRF1BP1L / Fold change vs veh, UHRF1BP1L / RFU, BET1 / Fold change vs veh, BET1 / RFU, CNOT2 / Fold change vs veh, CNOT2 / RFU, ZNF268 / Fold change vs veh, ZNF268 / Fold change vs veh, ZNF507 / RFU, DGCR2 / Fold change vs veh, DGCR2 / RFU, WDSUB1 / Fold change vs veh, WDSUB1 / Fold change vs veh, HSP90B1 /// MIR3652 / RFU, ADSS / Fold change vs veh, ADSS / RFU, GK / Fold change vs veh, GK / RFU, ZNF148 / Fold change vs veh, ZNF148 / RFU, TAF9 / Fold change vs veh, TAF9 / RFU, SLC1A5 / Fold change vs veh, SLC1A5 / RFU, SLMO2 / Fold change vs veh, SLMO2 / RFU, ABCC4 / Fold change vs veh, ABCC4 / RFU, LOC101060439 /// RAP1B / Fold change vs veh, LOC101060439 /// RAP1B / RFU, RFX7 / Fold change vs veh, RFX7 / RFU, GTPBP10 / Fold change vs veh, GTPBP10 / RFU, CNEP1R1 / Fold change vs veh, CNEP1R1 / RFU, BIVM-ERCC5 /// ERCC5 / Fold change vs veh, BIVM-ERCC5 /// ERCC5 / RFU, ILF3 / Fold change vs veh, ILF3 / RFU 11762660_at / Fold change /veh 11762660_at / RFU VCAN (11757783_s_at) / Fold change /veh VCAN (11757783_s_at) / RFU DDX43 (11728927_at) / Fold change /veh DDX43 (11728927_at) / RFU KRT8 (11758188_x_at) / Fold change /veh KRT8 (11758188_x_at) / RFU NKD1 (11759106_at) / Fold change /veh NKD1 (11759106_at) / RFU SRD5A1 (11742802_a_at) / Fold change /veh SRD5A1 (11742802_a_at) / RFU TPSAB1 /// TPSB2 (11721975_s_at) / Fold change /veh TPSAB1 /// TPSB2 (11721975_s_at) / RFU GSTM3 (11746129_a_at) / Fold change /veh GSTM3 (11746129_a_at) / RFU IL23R (11737362_x_at) / Fold change /veh IL23R (11737362_x_at) / RFU TMEM51 (11727254_a_at) / Fold change /veh TMEM51 (11727254_a_at) / RFU PIWIL2 (11732686_x_at) / Fold change /veh PIWIL2 (11732686_x_at) / RFU ORM1 (11744905_x_at) / Fold change /veh ORM1 (11744905_x_at) / RFU CCDC152 (11743942_at) / Fold change /veh CCDC152 (11743942_at) / RFU ECM1 (11717891_a_at) / Fold change /veh ECM1 (11717891_a_at) / RFU IL23R (11748794_a_at) / Fold change /veh IL23R (11748794_a_at) / RFU TNFAIP8L3 (11732012_x_at) / Fold change /veh TNFAIP8L3 (11732012_x_at) / RFU MBOAT4 (11741988_at) / Fold change /veh MBOAT4 (11741988_at) / RFU 11764193_at / Fold change /veh 11764193_at / RFU TMEM53 (11763286_at) / Fold change /veh TMEM53 (11763286_at) / RFU MAGEB2 (11727129_at) / Fold change /veh MAGEB2 (11727129_at) / RFU TMEM200A (11744735_a_at) / Fold change /veh TMEM200A (11744735_a_at) / RFU CCDC152 (11751479_a_at) / Fold change /veh CCDC152 (11751479_a_at) / RFU FAM211A (11726209_a_at) / Fold change /veh FAM211A (11726209_a_at) / RFU RGS16 (11746705_a_at) / Fold change /veh RGS16 (11746705_a_at) / RFU VCAN (11755009_s_at) / Fold change /veh VCAN (11755009_s_at) / RFU RHOB (11743442_s_at) / Fold change /veh RHOB (11743442_s_at) / RFU RGS16 (11720943_a_at) / Fold change /veh RGS16 (11720943_a_at) / RFU RGS16 (11720944_at) / Fold change /veh RGS16 (11720944_at) / RFU, VPS4B / Fold change vs veh, VPS4B / RFU, CREB1 / Fold change vs veh, CREB1 / RFU, DNAJC13 / Fold change vs veh, DNAJC13 / RFU, GNAQ / Fold change vs veh, GNAQ / RFU, CDK5R1 / Fold change vs veh, CDK5R1 / RFU, ZRANB3 / Fold change vs veh, ZRANB3 / RFU, CUL4A / Fold change vs veh, CUL4A / RFU, CCNY / Fold change vs veh, CCNY / RFU, UFL1 / Fold change vs veh, UFL1 / RFU, COG3 / Fold change vs veh, COG3 / RFU, DIAPH2 / Fold change vs veh, DIAPH2 / RFU, SKA2 / Fold change vs veh, SKA2 / RFU, AFF3 / Fold change vs veh, AFF3 / RFU, LMF1 / Fold change vs veh, LMF1 / RFU, IPO11 / Fold change vs veh, IPO11 / RFU, DFFB / Fold change vs veh, DFFB / RFU, FOXP1 / Fold change vs veh, FOXP1 / RFU, CARD8 / Fold change vs veh, CARD8 / RFU, STRN3 / Fold change vs veh, STRN3 / RFU, ADK / Fold change vs veh, ADK / RFU, RASSF2 / Fold change vs veh, RASSF2 / RFU, WIPF1 / Fold change vs veh, WIPF1 / RFU, LARP1B / Fold change vs veh, LARP1B / RFU, RASA1 / Fold change vs veh, RASA1 / RFU, RB1 / Fold change vs veh, RB1 / RFU, PPFIA1 / Fold change vs veh, PPFIA1 / RFU, MAT2A / Fold change vs veh, MAT2A / RFU, CCT5 / Fold change vs veh, CCT5 / RFU, WDR92 / Fold change vs veh, WDR92 / RFU, CUX1 / Fold change vs veh, CUX1 / RFU, TTC7A / Fold change vs veh, TTC7A / RFU, TMEM135 / Fold change vs veh, TMEM135 / RFU, DEPTOR / Fold change vs veh, DEPTOR / RFU, CPM / Fold change vs veh, CPM / RFU, DNAJB6 / Fold change vs veh, DNAJB6 / RFU, CACNA2D3 / Fold change vs veh, CACNA2D3 / RFU, DTX4 / Fold change vs veh, DTX4 / RFU, TFCP2 / Fold change vs veh, TFCP2 / RFU, GMCL1 /// GMCL1P1 / Fold change vs veh, GMCL1 /// GMCL1P1 / RFU, AEBP2 / Fold change vs veh, AEBP2 / RFU, SNHG1 /// SNORD22 /// SNORD25 /// SNORD26 /// SNORD27 /// SNORD28 /// SNORD29 /// SNORD31 / Fold change vs veh, SNHG1 /// SNORD22 /// SNORD25 /// SNORD26 /// SNORD27 /// SNORD28 /// SNORD29 /// SNORD31 / Fold change (Aza/veh), C12orf56 (ProbeSet 11735607_a_at) / Fold change (ACY-1035/veh), C12orf56 (ProbeSet 11735607_a_at) / Fold change (Aza/veh), FGFR1OP (ProbeSet 11751329_s_at) / Fold change (ACY-1035/veh), FGFR1OP (ProbeSet 11751329_s_at) / Fold change (Aza/veh), VPS36 (ProbeSet 11739960_a_at) / Fold change (ACY-1035/veh), VPS36 (ProbeSet 11739960_a_at) / RFU SYPL1 (11715823_x_at) / Fold change /veh SYPL1 (11715823_x_at) / RFU IGFBP7 (11715501_s_at) / Fold change /veh IGFBP7 (11715501_s_at) / RFU REEP3 (11722064_at) / Fold change /veh REEP3 (11722064_at) / RFU IGLL1 (11728026_x_at) / Fold change /veh IGLL1 (11728026_x_at): dose or concentration left out as unconfirmed
Conditions: MV-4-11 cells, 48 hours

SMILES: Nc1ncn([C@@H]2O[C@H](CO)[C@@H](O)[C@H]2O)c(=O)n1 [azacitidine]
- RFU CDKN2B (11736163_a_at): 8.51 RFU
